According to patent US20260325473A1, “N-Beta-Hydroxybutyryl-Amino Acids and Related Compositions and Methods” (The Board of Trustees of the Leland Stanford Junior …, priority 2023, published 2026):

Columns and labels:
[1] = molecular target: T1, CNDP2 (Mus musculus, UniProt Q9D1A2); settings: Li et al. 2022; cited from earlier work
T1 sequence (Q9D1A2 1-475): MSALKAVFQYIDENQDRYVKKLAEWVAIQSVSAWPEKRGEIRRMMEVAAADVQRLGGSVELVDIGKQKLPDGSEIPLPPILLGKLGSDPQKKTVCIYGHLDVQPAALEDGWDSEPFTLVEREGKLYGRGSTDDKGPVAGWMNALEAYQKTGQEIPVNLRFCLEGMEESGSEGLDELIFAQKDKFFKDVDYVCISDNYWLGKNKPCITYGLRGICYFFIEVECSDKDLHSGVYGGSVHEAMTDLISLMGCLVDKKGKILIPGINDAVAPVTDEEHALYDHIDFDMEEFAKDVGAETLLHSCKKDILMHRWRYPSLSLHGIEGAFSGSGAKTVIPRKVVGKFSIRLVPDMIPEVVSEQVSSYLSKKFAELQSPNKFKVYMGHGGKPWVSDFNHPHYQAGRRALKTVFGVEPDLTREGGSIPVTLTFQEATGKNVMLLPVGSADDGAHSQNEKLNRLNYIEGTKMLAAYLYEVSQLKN

[2] = Metabolite quantitation in mouse plasma (QQQ-LC/MS); assay type: in vivo
Protocol: Preparation of plasma samples for LC-MS analysis. Plasma was collected from mice via a submandibular bleed into lithium heparin tubes (BD, 365985) and immediately transferred onto ice. The blood was centrifuged at 4° C. at 5000 rpm for 5 min and the top layer of plasma was aliquoted and frozen at −80 °C. To extract polar metabolites from plasma for LC-MS analysis, 150 μl of a 2:1 mixture of acetonitrile/methanol was added to 50 μl of plasma. The mixture was centrifuged at 4° C. for 10 min at 15,000 rpm and the supernatant was transferred to a LC-MS vial.
Targeted metabolomics. Targeted measurements were performed using an Agilent 6470 triple quadrupole LC-MS instrument. MS analysis was performed using AJS in negative mode. The AJS source parameters were set as follows: the dry gas temperature was set at 250° C. with a gas flow of 12 l/min and the nebulizer pressure at 25 psi; the sheath gas temperature was set to 300° C. with the sheath gas flow set at 12 l/min; and the capillary voltage was set to 3,500 V. Separation of polar metabolites was performed as described above in the ‘Untargeted measurements of metabolites by LC-MS’ section. Multiple reaction monitoring was performed for the indicated metabolites with the listed dwell times, fragmentor voltage, collision energies, cell accelerator voltages and polarities. Quantification of the endogenous metabolite concentrations were performed by generating a standard curve with known concentrations of each metabolite. Metabolite standards were analyzed alongside the plasma samples using the same targeted triple quadrupole LC/MS method. A calibration standard curve generated from the metabolite standard concentrations and total peak areas were used to calculate the concentrations of each endogenous metabolite. The dilution of the plasma during the sample preparation was also taken into account for the quantification.

[3] = system: food intake; settings: Li et al. 2022; cited from earlier work
[4] = molecular target: T1, CNDP2; assay: In vitro synthase (condensation) activity, lysates of CNDP2-transfected HEK293T cells; assay type: biochemical; set-up: expressed in transfected cells; host or cells: HEK293T (lysate); settings: role: product; lactate and BHB at varying concentrations, phenylalanine 20 mM
Protocol: In vitro enzyme activity assays. HEK293T cells were transfected with GFP, CNDP2 or CNDP2-E166A using PolyFect (Qiagen 301105) according to the manufacturer's instructions. The medium was changed one day post-transfection. After an additional 24 h, the cells were harvested in PBS, lysed by sonication and centrifuged (10 min at 15,000 rpm) to remove debris. Supernatant was collected and protein concentrations were adjusted. The in vitro reactions were conducted in Eppendorf tubes with 100 μL of 1 mg/mL protein and 20 mM substrates for keto amino acid synthase activity assays and. Reactions were incubated for 1 h at 37° C. and 20 μl of 1 M HCl were added to acidify the medium and to protonate keto amino acids. Reactions were vortexed and 400 μL of ethyl acetate were added to each reaction. Reactions were vortexed for 30 s to extract keto amino acids into the organic layer and centrifuged at 4° C. for 10 min at 15,000 r.p.m. A total of 300 μl from the top layer was transferred to a new Eppendorf tube and dried down under a stream of nitrogen. The residue was re-suspended in 150 μl of an 2:1:1 mixture of acetonitrile: methanol: water. The mixture was centrifuged at 4° C. for 10 min at 15,000 r.p.m. and the supernatant was transferred to a LC-MS vial.

[5] = system: brain lysate proteins; assay: Competition of X-Phe photoprobe-labeled brain proteins, quantitative shotgun proteomics; assay type: binding, mouse
Protocol: Shotgun proteomics of X-Phe photoprobe-labeled proteins. Brains from wild type C57BL/6J mice were harvested and homogenized using a bead blaster in PBS. Brain homogenate was centrifuged (15,000 rpm, 10 min) to yield the cytosolic supernatant and membrane pellet fractions. The cytosolic fraction was transferred to a new eppie and centrifuged again (15,000 rpm, 10 min). This process was repeated 4 times until no pellet was present after centrifugation. The membrane pellet was washed with 1 ml PBS and centrifuged (15,000 rpm, 10 min); this step was also repeated 4 times to remove any cytosolic protein contamination. After the centrifugation steps, the membrane pellet was re-suspended in PBS and sonicated. For competition experiments, brain lysate was normalized to 2 mg/ml in PBS and incubated with competitors at the indicated concentrations at room temperature for 30 minutes. 100 μM of the photoprobe was added and the reactions incubated on ice for 10 minutes protected from light. Reactions were then put under UV for 1 min on a UV Stratalinker. A biotin click reaction was performed by adding the following reagents to the indicated final concentrations: […], 1 mM CuSO4, 1 mM TCEP (freshly prepared), 30 μM Biotin-N3. Reactions were allowed to proceed for 1 hour at room temp, protected from light, and while rotating. The following prep was adapted from Niphakis et al. 2015. To each reaction, the following solvents were added in order, 4 ml cold methanol, 1 ml cold chloroform, 2 ml cold PBS. The mixture was vortexed well and centrifuged (4,600×g, 15 min, 4° C.). After centrifugation the organic and aqueous layers were removed without disruption of the protein disc. The protein disc was washed with a cold 1:1 mixture of methanol:chloroform 3 times. After the final wash, the protein disc was re-suspended in a 4:1 mixture of methanol:chloroform and sonicated. The insoluble protein was pelleted by centrifugation (4,600×g, 15 min, 4 C) and the pellet re-suspended in freshly prepared 500 μl of 6 M urea in PBS. 20 μl of 10% (w/v) SDS was added to the solution. The solution was then warmed in a 37 C water bath for 10 min to help dissolve poorly soluble protein. A streptavidin pulldown was the performed on the protein mixture. 250 μl of streptavidin beads were washed 3 times with 1 ml PBS. Protein samples were diluted with 5.5 ml of 0.25% SDS in PBS and incubated with streptavidin beads for 1.5 hr at room temperature. Following incubation, beads were washed 5 times each with 0.25% SDS in PBS, then PBS, then lastly with ultra-pure water Steptavidin beads were suspended in 150 μL resuspension buffer (1 M urea, 50 mM Tris-HCl, pH 8). Proteins were digested with 3 μg of trypsin for 4 hours. Digested peptides were reduced with 5 mM TCEP for 10 minutes. Cys residues were alkylated using 15 mM iodoacetimide (IAA) for 20 minutes. Finally, excess IAA was quenched with 10 mM DTT. Acidified digested peptides were desalted over C18 StageTips [PMID: 12585499]. Peptides were then eluted with 80% acetonitrile, 0.1% TFA and dried in a speedvac. Dried samples were reconstituted with 200 mM EPPS buffer, pH 8.0, and labelled with TMT reagents (Thermo Fisher Scientific). Following incubation at room temperature for 2 h, the reactions were quenched with hydroxylamine to a final concentration of 0.5% (v/v). […]

[6] = molecular target: T1, CNDP2; assay: In vitro synthase (condensation) activity, lysates of CNDP2-transfected HEK293T cells; assay type: biochemical; set-up: expressed in transfected cells; host or cells: HEK293T (lysate); settings: role: substrate; organic acids 1 mM with 10 mM phenylalanine

SMILES | Lac-Phe levels upon genetic ablation of CNDP2 [1] | elevation after acute treadmill running ([2]; 15 min running) [fold] | effect of ketone ester administration on level ([2]; 30 min after ketone drink, 3 mg/g) | effect of strenuous and prolonged exercise on level ([2]; 30 min strenuous running) | food intake [3] | products formed from combined lactate and BHB [4] | competition of X-Phe photoprobe-labeled proteins ([5]; 100 μM photoprobe, 50-fold excess competitor) [%] | number of the 32 Keto-Phe targets also >80% competed by Lac-Phe ([5]; 50-fold excess Lac-Phe) | share of the 32 Keto-Phe targets also >80% competed by Lac-Phe ([5]; 50-fold excess Lac-Phe) [%] | CNDP2 activity towards organic acid substrates [6]
C[C@H](O)C(=O)N[C@@H](Cc1ccccc1)C(=O)O [Lac-Phe, N-lactoyl phenylalanine] | dramatically reduces Lac-Phe levels | 8 | without affecting Lac-Phe levels | robust co-induction | suppresses food intake | simultaneous production | > 80 | 30 out of 32 | 94 | –
CC(=O)O [acetate] | – | – | – | – | – | – | – | – | – | unable to accept
